Laboratory results from patent publication US11420935B2, “Bicyclic compounds” (Vivace Therapeutics, Inc., priority 2019, dated 2022).

What follows are molecules tested on 8×TBD luciferase reporter (YAP) in HEK293T cells (assay: YAP Reporter Assay (8×TBD firefly luciferase reporter)). Settings: Homo sapiens, HEK-293T; HEK293T cells stably transfected with 8×TBD luciferase reporter and pRLTK; 24-hr incubation; firefly luciferase activity; read-out: Firefly Luciferase IC50.
Format: cell-based
Experimental: HEK293T cells stably transfected with 8×TBD luciferase reporter and pRLTK in 384-well plates were treated with the test compounds, starting from 3 μM (final concentration in assay plate), 1:3 dilution, and 10 points in quadruplicates. Post 24-hr incubation with compounds at 37° C. and 5% CO2, cells were lysed and 8×TBD-driven firefly luciferase and control TK-driven renilla luciferase activities were measured using Promega Dual-Luciferase Reporter Assay System.
Reagents: The reagents used for this study are: DMEM: Invitrogen #11960077, Dual-Glo Luciferase Assay System: Promega-E2980, Puromycin Dihydrochloride: Invitrogen-A1113803, 384-well plate: PerkinElmer-6007480, L-GLUTAMINE: Invitrogen-25030164, Hygromycin B: Invitrogen-10687010, and Penicillin-Streptomycin: Merk-TMS-AB2-C
Media: The media used for this assay were: Culture Medium: DMEM+1 ug/mL puromycin+200 ug/mL hygromycin (with 10% FBS+1 mM L-glutamine); and Assay Medium: DMEM (with 10% FBS+1 mM L-glutamine+1×P/S).
Cell Plating: The appropriate media was warmed at 37° C. by water bath: Culture Medium, Assay Medium, 1*D-PBS, 0.05% trypsin-EDTA. The cells were trypsinized after removing all media, then washed with 1*sterile D-PBS and then with 2 ml 0.05% trypsin-EDTA. The cells were then incubated at RT for one minute. Then 10 ml/75 cm2 flask Assay Medium was added to each flask. Using a 10 ml pipette, the cells were then gently resuspended in the media, until the clumps completely disappeared. The cells were then transferred into 50 ml centrifuge tubes and were centrifuged at 800 rpm for 5 mins. The medium was removed and the cells were resuspended with Assay Medium. An aliquot of cells was used to count the cell density (cells/ml). The cell suspension was then diluted with Assay Medium to a concentration of 6×10^4 cells/ml. 50 ul cells suspension was then plated to 384-well plate (PerkinElmer-6007480), 3×10^3 cells/well and the cells were incubated in an incubator at 37° C., 5% CO2.
Compound Treatment: In the afternoon (incubation of the plate with 3-4 hrs), the test compounds were added by Echo, starting from 3 uM (final concentration in the assay plate), 1:3 dilution, 10 points, quadruplicates. The plate was placed at 37° C., 5% CO2 incubator for 24 hrs.
Detection: The Dual-Glo Luciferase Reagent was prepared by transferring the contents of one bottle of Dual-Glo Luciferase Buffer to one bottle of Dual-Glo Luciferase Substrate to create the Dual-Glo Luciferase Reagent. Mixing was performed by inversion until the substrate was thoroughly dissolved. After mixing, the reagent was aliquoted into 15 ml tubes. In the afternoon (24 hrs post compound treatment), the DMEM+medium in the 384 well plates were aspirated by Microplate Washer.
Measuring firefly luciferase activity: 20 ul Dual-Glo Luciferase Reagent was added to the 384-well plates. The plates were protected from light to prevent interference with the assay. The plates were shaken for 1 min followed centrifuging plates at 1000 rpm for 30 seconds. After waiting at least 10 minutes, the firefly luminescence was measured by Envision.
Measuring renilla luciferase activity: 20 ul Stop-Glo Reagent was added to the 384-well plates. The plates were shaken for 1 min and then centrifuged at 1000 rpm for 30 seconds. After waiting at least 10 minutes, the renilla luminescence was measured by Envision.
Compound IC50 and maximum inhibition on the firefly luciferase and renilla luciferase activities were reported separately.
For `C[C@@H](NC(=O)c1ccc2c(Oc3ccc(C(F)(F)F)cc3)cccc2c1)c1cccc(N)n1` [Compound 66, (R)—N-(1-(6-aminopyridin-2-yl)ethyl)-5-(4-(trifluoromethyl)phenoxy)-2-naphthamide], the IC50 was less than 100 nM.
With `CC(C)NC(=O)c1ccc2c(Oc3ccc(C(F)(F)F)cc3)ccnc2c1` [Compound 67, N-isopropyl-4-(4-(trifluoromethyl)phenoxy)quinoline-7-carboxamide] the IC50 was 100 to 1000 nM.
`C[C@@H](NC(=O)c1ccc2c(Oc3ccc(C(F)(F)F)cc3)cccc2c1)c1nccn1C` [Compound 68, (R)—N-(1-(1-methyl-1H-imidazol-2-yl)ethyl)-5-(4-(trifluoromethyl)phenoxy)-2-naphthamide] showed an IC50 of 100 to 1000 nM.
Molecule `C[C@H](NC(=O)c1ccc2c(Oc3ccc(C(F)(F)F)cc3)cccc2c1)c1nccn1C` [Compound 69, (S)—N-(1-(1-methyl-1H-imidazol-2-yl)ethyl)-5-(4-(trifluoromethyl)phenoxy)-2-naphthamide] has an IC50 of 100 to 1000 nM.
`CC(C)NC(=O)c1ccc2c(Oc3ccc(C(F)(F)F)cc3)cccc2n1` [Compound 70, N-Isopropyl-5-(4-(trifluoromethyl)phenoxy)quinoline-2-carboxamide] was tested, and the IC50 was less than 100 nM.
Molecule `C[C@H](NC(=O)c1ccc2c(Oc3ccc(C(F)(F)F)cc3)cccc2c1)c1cc(N)ccn1` [Compound 71, (S)—N-(1-(4-aminopyridin-2-yl)ethyl)-5-(4-(trifluoromethyl)phenoxy)-2-naphthamide] has an IC50 of 100 to 1000 nM.
`C[C@@H](NC(=O)c1ccc2c(Oc3ccc(C(F)(F)F)cc3)cccc2c1)c1cc(N)ccn1` [Compound 72, (R)—N-(1-(4-aminopyridin-2-yl)ethyl)-5-(4-(trifluoromethyl)phenoxy)-2-naphthamide] gave an IC50 of less than 100 nM.
For `C[C@H](NC(=O)c1ccc2c(Oc3ccc(C(F)(F)F)cc3)cccc2c1)c1cc(N(C)C)ccn1` [Compound 73, (S)—N-(1-(4-(dimethylamino)pyridin-2-yl)ethyl)-5-(4-(trifluoromethyl)phenoxy)-2-naphthamide], the IC50 was 100 to 1000 nM.
Work on `C[C@@H](NC(=O)c1ccc2c(Oc3ccc(C(F)(F)F)cc3)cccc2c1)c1cc(N(C)C)ccn1` [Compound 74, (R)—N-(1-(4-(dimethylamino)pyridin-2-yl)ethyl)-5-(4-(trifluoromethyl)phenoxy)-2-naphthamide] yielded an IC50 of 1000 to 3000 nM.
`CC(NC(=O)c1ccc2c(Oc3ccc(C(F)(F)F)cc3)cccc2c1)c1cc(Br)ccn1` (stereo not drawn) [Compound 75, N-(1-(4-bromopyridin-2-yl)ethyl)-5-(4-(trifluoromethyl)phenoxy)-2-naphthamide] showed an IC50 of less than 100 nM.
`C[C@H](NC(=O)c1ccc2c(Oc3ccc(C(F)(F)F)cc3)cccc2c1)c1cccc(N(C)C)n1` [Compound 76, (S)—N-(1-(6-(dimethylamino)pyridin-2-yl)ethyl)-5-(4-(trifluoromethyl)phenoxy)-2-naphthamide] was tested, and the IC50 was 100 to 1000 nM.
With `C[C@@H](NC(=O)c1ccc2c(Oc3ccc(C(F)(F)F)cc3)cccc2c1)c1cccc(N(C)C)n1` [Compound 77, (R)—N-(1-(6-(dimethylamino)pyridin-2-yl)ethyl)-5-(4-(trifluoromethyl)phenoxy)-2-naphthamide] the IC50 was less than 100 nM.
`C[C@H](NC(=O)c1ccc2c(Oc3ccc(C(F)(F)F)cc3)cccc2c1)c1cccnc1N` [Compound 78, (S)—N-(1-(2-aminopyridin-3-yl)ethyl)-5-(4-(trifluoromethyl)phenoxy)-2-naphthamide] was tested, and the IC50 was less than 100 nM.
With `C[C@@H](NC(=O)c1ccc2c(Oc3ccc(C(F)(F)F)cc3)cccc2c1)c1cccnc1N` [Compound 79, (R)—N-(1-(2-aminopyridin-3-yl)ethyl)-5-(4-(trifluoromethyl)phenoxy)-2-naphthamide] the IC50 was 1000 to 3000 nM.
For `O=C(NC(CO)Cc1ccccn1)c1ccc2c(Oc3ccc(C(F)(F)F)cc3)cccc2c1` (stereo not drawn) [Compound 80, N-[1-(hydroxymethyl)-2-(2-pyridyl)ethyl]-5-[4-(trifluoromethyl)phenoxy]naphthalene-2-carboxamide], the IC50 was less than 100 nM.
`CC(C)NC(=O)c1cnc2c(Oc3ccc(C(F)(F)F)cc3)cc(F)c(F)c2c1` [Compound 81, 5,6-difluoro-N-isopropyl-8-(4-(trifluoromethyl)phenoxy)quinoline-3-carboxamide] gave an IC50 of less than 100 nM.
With `C[C@H](NC(=O)c1ccc2c(Oc3ccc(C(F)(F)F)cc3)cccc2c1)c1ccccc1Cl` [Compound 83, (S)—N-(1-(2-chlorophenyl)ethyl)-5-(4-(trifluoromethyl)phenoxy)-2-naphthamide] the IC50 was less than 100 nM.
For `CC(C)NC(=O)c1ccc2c(Oc3ccc(C(F)(F)F)cc3F)cccc2c1` [Compound 84, 5-(2-fluoro-4-(trifluoromethyl)phenoxy)-N-isopropyl-2-naphthamide], the IC50 was less than 100 nM.
Molecule `CC(C)NC(=O)c1ccc2c(Oc3ccc(C(F)(F)F)cc3Cl)cccc2c1` [Compound 85, 5-(2-chloro-4-(trifluoromethyl)phenoxy)-N-isopropyl-2-naphthamide] has an IC50 of less than 100 nM.
For `N#CNC(=O)c1ccc2c(Oc3ccc(C(F)(F)F)cc3)cccc2c1` [Compound 86, N-cyano-5-[4-(trifluoromethyl)phenoxy]naphthalene-2-carboxamide], the IC50 was 100 to 1000 nM.
Work on `C[C@@H](NC(=O)c1ccc2c(Oc3ccc(C(F)(F)F)cc3)cccc2c1)c1cccc2cn[nH]c12` [Compound 87, N-[(1R)-1-(1H-indazol-7-yl)ethyl]-5-[4-(trifluoromethyl)phenoxy]naphthalene-2-carboxamide] yielded an IC50 of less than 100 nM.
Molecule `CC#C[C@H](C)NC(=O)c1ccc2c(Oc3ccc(C(F)(F)F)cc3)cccc2c1` [Compound 89, N-[(1S)-1-methylbut-2-ynyl]-5-[4-(trifluoromethyl)phenoxy]naphthalene-2-carboxamide] has an IC50 of less than 100 nM.
For `CC#C[C@@H](C)NC(=O)c1ccc2c(Oc3ccc(C(F)(F)F)cc3)cccc2c1` [Compound 90, N-[(1R)-1-methylbut-2-ynyl]-5-[4-(trifluoromethyl)phenoxy]naphthalene-2-carboxamide], the IC50 was less than 100 nM.
For `C[C@@H](NC(=O)c1ccc2c(Oc3ccc(C(F)(F)F)cc3)cccc2c1)c1cn(C)cn1` [Compound 91, N-[(1R)-1-(1-methylimidazol-4-yl)ethyl]-5-[4-(trifluoromethyl)phenoxy]naphthalene-2-carboxamide], the IC50 was less than 100 nM.
`C[C@H](NC(=O)c1ccc2c(Oc3ccc(C(F)(F)F)cc3)cccc2c1)c1cn(C)cn1` [Compound 92, N-[(1S)-1-(1-methylimidazol-4-yl)ethyl]-5-[4-(trifluoromethyl)phenoxy]naphthalene-2-carboxamide] gave an IC50 of 100 to 1000 nM.
In the case of `CC(C)NC(=O)c1ccc2c(Oc3ccc(C(F)(F)F)cc3)cncc2c1` [Compound 93, N-isopropyl-4-(4-(trifluoromethyl)phenoxy)isoquinoline-7-carboxamide], the IC50 is reported as less than 100 nM.
`O=C(NC(CCO)c1ccccn1)c1ccc2c(Oc3ccc(C(F)(F)F)cc3)cccc2c1` (stereo not drawn) [Compound 94, N-(3-hydroxy-1-(pyridin-2-yl)propyl)-5-(4-(trifluoromethyl)phenoxy)-2-naphthamide] gave an IC50 of less than 100 nM.
`C[C@H](NC(=O)c1ccc2c(Oc3ccc(C(F)(F)F)cc3)cccc2c1)C1CNC1` [Compound 95, N-[(1S)-1-(azetidin-3-yl)ethyl]-5-[4-(trifluoromethyl)phenoxy]naphthalene-2-carboxamide] gave an IC50 of less than 100 nM.
`C[C@@H](NC(=O)c1ccc2c(Oc3ccc(C(F)(F)F)cc3)cccc2c1)C1CNC1` [Compound 96, N-[(1R)-1-(azetidin-3-yl)ethyl]-5-[4-(trifluoromethyl)phenoxy]naphthalene-2-carboxamide] gave an IC50 of less than 100 nM.
For `C[C@H](NC(=O)c1cc2cccc(Oc3ccc(C(F)(F)F)cc3)c2s1)c1ccccn1` [Compound 97, (S)—N-(1-(pyridin-2-yl)ethyl)-7-(4-(trifluoromethyl)phenoxy)benzothiophene-2-carboxamide], the IC50 was less than 100 nM.
